This is an account of results in the supplement of paper PMC10307832.

Common to all, as to assay: relative viability (nuclei count vs DMSO), 5 days (fraction); higher = more cells survive
Compound in the assay “Trametinib + Tozasertib”: CC(=O)Nc1cccc(-n2c(=O)n(C3CC3)c(=O)c3c(Nc4ccc(I)cc4F)n(C)c(=O)c(C)c32)c1 [Trametinib] + Cc1cc(Nc2cc(N3CCN(C)CC3)nc(Sc3ccc(NC(=O)C4CC4)cc3)n2)n[nH]1 [Tozasertib] (partner 0.1 µM)
The gist of the method: (§1)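 Dosing by pin tool came one day after lung cancer cell lines were seeded in 1536-well plates, using either one drug or a fixed anchor-drug dose plus five library-drug doses (not always all listed) in √10 steps. After 5 days, nuclei were counted on 4× images. Relative viability is treated-well nuclei count divided by vehicle-well nuclei count, and values are medians of duplicate plates.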

Compound in the assay “Trametinib + Dasatinib”: CC(=O)Nc1cccc(-n2c(=O)n(C3CC3)c(=O)c3c(Nc4ccc(I)cc4F)n(C)c(=O)c(C)c32)c1 [Trametinib] + Cc1nc(Nc2ncc(C(=O)Nc3c(C)cccc3Cl)s2)cc(N2CCN(CCO)CC2)n1 [Dasatinib] (partner 0.075 µM)
The gist of the method:
as §1

Compound in assay [1]: CN1C=C(C2=CC=CC=C21)/C=C\3/C4=C(C=CC=N4)NC3=O + CCNC(=O)c1noc(-c2cc(C(C)C)c(O)cc2O)c1-c1ccc(CN2CCOCC2)cc1 [Luminespib] (partner 0.01 µM)
The method in brief:
as §1

Compound in assay [2]: CN1C=C(C2=CC=CC=C21)/C=C\3/C4=C(C=CC=N4)NC3=O + Cc1nc(NC(=O)N2CCC[C@H]2C(N)=O)sc1-c1ccnc(C(C)(C)C(F)(F)F)c1 [Alpelisib] (partner 2 µM)
The gist of the method: as §1

Take NCI-H520: the relative viability with Trametinib + Tozasertib (first compound 0.0025 µM) amounted to 0.388; with Trametinib + Tozasertib (first compound 0.007906 µM), 0.46; with Trametinib + Tozasertib (first compound 0.025 µM) it was 0.473; with Trametinib + Tozasertib (first compound 0.07906 µM), 0.469; with Trametinib + Tozasertib (first compound 0.25 µM), 0.362; with Trametinib + Dasatinib (first compound 0.0025 µM), 0.281. In addition, the relative viability was determined as 0.225 with Trametinib + Dasatinib (first compound 0.007906 µM); 0.288 with Trametinib + Dasatinib (first compound 0.025 µM); 0.282 with Trametinib + Dasatinib (first compound 0.07906 µM); 0.176 with Trametinib + Dasatinib (first compound 0.25 µM); 0.204 in assay [1] (first compound 0.02 µM); 0.24 in assay [1] (first compound 0.06325 µM). In addition, the relative viability in assay [1] (first compound 0.2 µM) was 0.217; in assay [1] (first compound 0.6325 µM), 0.211; in assay [1] (first compound 2 µM), 0.229; in assay [2] (first compound 0.02 µM) it was 0.796; in assay [2] (first compound 0.06325 µM), 0.69; in assay [2] (first compound 0.2 µM) it was 0.859. Moreover, the relative viability came to 1.02 in assay [2] (first compound 0.6325 µM) and 1.04 in assay [2] (first compound 2 µM).
In the case of NCI-H650, the relative viability was determined as 0.733 in the assay with Trametinib + Tozasertib (first compound 0.0025 µM); 0.774 with Trametinib + Tozasertib (first compound 0.007906 µM); 0.621 with Trametinib + Tozasertib (first compound 0.025 µM); 0.569 in the assay with Trametinib + Tozasertib (first compound 0.07906 µM); 0.329 with Trametinib + Tozasertib (first compound 0.25 µM); 0.573 with Trametinib + Dasatinib (first compound 0.0025 µM). In addition, the relative viability with Trametinib + Dasatinib (first compound 0.007906 µM) came to 0.615; in the assay with Trametinib + Dasatinib (first compound 0.025 µM), 0.541; in the assay with Trametinib + Dasatinib (first compound 0.07906 µM) it was 0.445; in the assay with Trametinib + Dasatinib (first compound 0.25 µM) it was 0.356; in assay [1] (first compound 0.02 µM) it was 0.573; in assay [1] (first compound 0.06325 µM), 0.775. For the same cell line, the relative viability amounted to 0.757 in assay [1] (first compound 0.6325 µM); 0.889 in assay [1] (first compound 2 µM); 1.07 in assay [2] (first compound 0.02 µM); 1.12 in assay [2] (first compound 0.06325 µM); 1.24 in assay [2] (first compound 0.6325 µM); 1.09 in assay [2] (first compound 2 µM).
Turning to COR-L 105, the relative viability turned out to be 0.287 in the assay with Trametinib + Tozasertib (first compound 0.0025 µM); 0.387 with Trametinib + Tozasertib (first compound 0.007906 µM); 0.338 with Trametinib + Tozasertib (first compound 0.025 µM); 0.31 with Trametinib + Tozasertib (first compound 0.07906 µM); 0.223 in the assay with Trametinib + Tozasertib (first compound 0.25 µM); 0.319 in the assay with Trametinib + Dasatinib (first compound 0.0025 µM). In addition, the relative viability with Trametinib + Dasatinib (first compound 0.007906 µM) was 0.289; in the assay with Trametinib + Dasatinib (first compound 0.025 µM) it was 0.194; in the assay with Trametinib + Dasatinib (first compound 0.07906 µM) it was 0.153; with Trametinib + Dasatinib (first compound 0.25 µM), 0.17; in assay [1] (first compound 0.02 µM) it was 0.634; in assay [1] (first compound 0.06325 µM), 0.616. The relative viability in assay [1] (first compound 0.2 µM) is 0.625; in assay [1] (first compound 0.6325 µM), 0.804; in assay [1] (first compound 2 µM) it was 0.85; in assay [2] (first compound 0.02 µM), 0.907; in assay [2] (first compound 0.06325 µM) it was 0.898; in assay [2] (first compound 0.2 µM), 0.922. The relative viability worked out at 1.01 in assay [2] (first compound 0.6325 µM) and 0.874 in assay [2] (first compound 2 µM).
Regarding NCI-H1755, the relative viability with Trametinib + Tozasertib (first compound 0.0025 µM) was determined as 0.544; with Trametinib + Tozasertib (first compound 0.007906 µM), 0.537; in the assay with Trametinib + Tozasertib (first compound 0.025 µM), 0.604; in the assay with Trametinib + Tozasertib (first compound 0.07906 µM) it was 0.63; with Trametinib + Tozasertib (first compound 0.25 µM), 0.545; with Trametinib + Dasatinib (first compound 0.0025 µM), 0.409. In addition, the relative viability was 0.433 with Trametinib + Dasatinib (first compound 0.007906 µM); 0.492 in the assay with Trametinib + Dasatinib (first compound 0.025 µM); 0.427 in the assay with Trametinib + Dasatinib (first compound 0.07906 µM); 0.322 with Trametinib + Dasatinib (first compound 0.25 µM); 0.376 in assay [1] (first compound 0.02 µM); 0.369 in assay [1] (first compound 0.06325 µM). Further, the relative viability in assay [1] (first compound 0.2 µM) was 0.541; in assay [1] (first compound 0.6325 µM), 0.37; in assay [1] (first compound 2 µM), 0.387; in assay [2] (first compound 0.02 µM), 0.872; in assay [2] (first compound 0.06325 µM) it was 0.922; in assay [2] (first compound 0.2 µM) it was 0.944. For the same cell line, the relative viability in assay [2] (first compound 0.6325 µM) was determined as 0.836; in assay [2] (first compound 2 µM), 0.858.
In the case of NCI-H2085, the relative viability in the assay with Trametinib + Tozasertib (first compound 0.0025 µM) is 0.721; with Trametinib + Tozasertib (first compound 0.007906 µM) it was 0.598; with Trametinib + Tozasertib (first compound 0.025 µM) it was 0.551; in the assay with Trametinib + Tozasertib (first compound 0.07906 µM) it was 0.561; in the assay with Trametinib + Tozasertib (first compound 0.25 µM), 0.621; with Trametinib + Dasatinib (first compound 0.0025 µM) it was 0.215. The relative viability with Trametinib + Dasatinib (first compound 0.007906 µM) was 0.185; with Trametinib + Dasatinib (first compound 0.025 µM), 0.233; with Trametinib + Dasatinib (first compound 0.07906 µM), 0.213; in the assay with Trametinib + Dasatinib (first compound 0.25 µM), 0.222; in assay [1] (first compound 0.02 µM), 0.454; in assay [1] (first compound 0.06325 µM) it was 0.412. The relative viability in assay [1] (first compound 0.2 µM) stood at 0.436; in assay [1] (first compound 0.6325 µM), 0.411; in assay [1] (first compound 2 µM) it was 0.485; in assay [2] (first compound 0.02 µM), 0.967; in assay [2] (first compound 0.06325 µM), 0.849; in assay [2] (first compound 0.2 µM), 1.01. For the same cell line, the relative viability in assay [2] (first compound 0.6325 µM) was 0.852; in assay [2] (first compound 2 µM), 0.949.
For the cell line NCI-H2023, the relative viability came out at 0.232 in the assay with Trametinib + Tozasertib (first compound 0.0025 µM); 0.262 with Trametinib + Tozasertib (first compound 0.007906 µM); 0.26 with Trametinib + Tozasertib (first compound 0.025 µM); 0.232 with Trametinib + Tozasertib (first compound 0.07906 µM); 0.199 in the assay with Trametinib + Tozasertib (first compound 0.25 µM); 0.484 in the assay with Trametinib + Dasatinib (first compound 0.0025 µM). In addition, the relative viability with Trametinib + Dasatinib (first compound 0.007906 µM) came to 0.485; in the assay with Trametinib + Dasatinib (first compound 0.025 µM), 0.515; with Trametinib + Dasatinib (first compound 0.07906 µM), 0.34; with Trametinib + Dasatinib (first compound 0.25 µM), 0.221; in assay [1] (first compound 0.02 µM) it was 0.899; in assay [1] (first compound 0.06325 µM) it was 0.602. In addition, the relative viability is 0.763 in assay [1] (first compound 0.2 µM); 0.914 in assay [1] (first compound 0.6325 µM); 0.527 in assay [1] (first compound 2 µM); 0.649 in assay [2] (first compound 0.02 µM); 0.594 in assay [2] (first compound 0.06325 µM); 0.542 in assay [2] (first compound 0.2 µM). Moreover, the relative viability turned out to be 0.516 in assay [2] (first compound 0.6325 µM) and 0.53 in assay [2] (first compound 2 µM).
On to HOP-62, for which the relative viability with Trametinib + Tozasertib (first compound 0.0025 µM) is 0.419; in the assay with Trametinib + Tozasertib (first compound 0.007906 µM), 0.367; with Trametinib + Tozasertib (first compound 0.025 µM) it was 0.374; with Trametinib + Tozasertib (first compound 0.07906 µM) it was 0.232; with Trametinib + Tozasertib (first compound 0.25 µM), 0.203; with Trametinib + Dasatinib (first compound 0.0025 µM), 0.681. The relative viability with Trametinib + Dasatinib (first compound 0.007906 µM) was determined as 0.43; with Trametinib + Dasatinib (first compound 0.025 µM) it was 0.249; in the assay with Trametinib + Dasatinib (first compound 0.07906 µM), 0.206; with Trametinib + Dasatinib (first compound 0.25 µM), 0.212; in assay [1] (first compound 0.02 µM), 0.783; in assay [1] (first compound 0.06325 µM), 0.986. For the same cell line, the relative viability turned out to be 0.802 in assay [1] (first compound 0.2 µM); 0.946 in assay [1] (first compound 0.6325 µM); 0.957 in assay [1] (first compound 2 µM); 0.821 in assay [2] (first compound 0.02 µM); 0.843 in assay [2] (first compound 0.06325 µM); 0.957 in assay [2] (first compound 0.2 µM). Further, the relative viability in assay [2] (first compound 0.6325 µM) turned out to be 0.926; in assay [2] (first compound 2 µM), 1.07.
